The values below come from patent US20200315950A1, “COMPOSITION FOR MODULATING THE GENES RESPONSIBLE FOR GENERAL SKIN FUNCTIONS, METHOD FOR MODULATING THE EXPRESSION OF GENES RESPONSIBLE FOR GENERAL SKIN FUNCTIONS, AND USE OF A PLANT EXTRACT” (Natura Cosmeticos S.A., priority 2016, published 2020).

In this assay the test system is 180 genes in skin explants. In words: Large scale gene expression profile assay (PCR array) in skin explants. The assay is classed as cell-based, human. To be noted: eyelid skin explants, 2 mg/cm^2 topical, 24 hours, threshold 30% increase or reduction. Here is the method: A large scale gene expression profile assay (by PCR array) was performed of 180 genes in skin explants obtained subsequent to blepharoplasty and subjected to individual treatments with the present invention.
Initially, skin explants were obtained from the eyelids of females between 45 and 55 years of age, three (3) different donors of each age. The explants were split into halves and immediately inserted, in triplicate from each donor, into a culture medium and kept for 24 hours (half 1) and 72 hours (half 2) in a wet environment, at 37° C., 5% CO2. […]
Half (1) was collected and subjected to total RNA extraction. The quality of the extracted RNA was qualitatively (Bioanalyzer microcapillary electrophoresis) and quantitatively (Nanodrop spectrophotometer) assessed. […] The ΔCt values for the GAPDH (glyceraldehyde-3-phosphate dehydrogenase) reference gene and target gene were calculated by subtracting from each other the values for the experimental groups. […] Lastly, a relative quantification of the target genes was determined by using the equation: RQ=2−ΔΔCt. […] The statistical significance was assessed by using the t test followed by the Benjamini-Hochberg method (FDR—false discovery rate), which p-value<0.05 was considered significant. […]

Several values for one entry are separate records, joined by “and”; a condition that tells them apart may be missing. Identical values can stand only once.

On to `C/C=C/C=C\CC/C=C/C(=O)NCC(C)C` [spilanthol sample, spilanthol], for which the “number of genes modulated as compared to the untreated control” value stood at 163 genes.

In the case of “hyaluronic acid [Hyaluronic Acid sample]”, the “number of genes modulated as compared to the untreated control” value was 162 genes and 146 genes.
